Reference: publication PMC4627284, “High-throughput simultaneous screen and counterscreen identifies homoharringtonine as synthetic lethal with von Hippel-Lindau loss in renal cell carcinoma” (Oncotarget, 2015)

Experiments:
[1] = tested on: 786-O VHL^mCh (VHL-reconstituted) cells; assay: Western blot for Caspase 9 and Bcl-xL; type: cell-based, human; settings: 24 hours
Description: (§1) Figure 2 Homoharringtonine (HHT) preferentially induces cell death in VHL-deficient 786-O cells A. 786-O cells with VHL mutation (green) or with VHL-reconstituted (red) were treated with different concentrations of HHT (0, 25, 50, or 100 nM) for 0, 6, 12, 24, 36, or 48 hours, and cell death was measured by trypan blue exclusion assay (n = 3 for each concentration and time point; *p < 0.05, **p < 0.001, ***p < 0.0001 between 786-O EV cells and 786-O with VHL reconstituted at the same concentration and time point). B. […] Blots were probed for Bcl-xL and Caspase 9, and α-Tubulin as loading control. Arrow indicates the cleaved Caspase 9 product.

[2] = tested on: 786-O EV^GFP (VHL-deficient) cells; assay: Western blot for Caspase 9 and Bcl-xL; type: cell-based, human
Description: as §1

XP26 tumorgraft line = assay: ccRCC tumorgraft model, line XP26; type: in vivo, NOD/SCID mice; settings: 0.7 mg/kg by gavage twice daily
Description: We selected 6 independently-derived ccRCC tumorgraft lines that were confirmed to have VHL mutation. The mice (3-5 mice per tumorgraft line) were treated with either HHT (0.7 mg/kg), vehicle (as a negative control), or rapamycin (0.5 mg/kg; as a positive control). In total, 65 tumorgraft bearing mice were evaluated for these experiments in time courses lasting ~28 days, with tumor growth measured every 3 or 4 days.
Figure 3 HHT inhibits tumor growth in a ccRCC tumorgraft model A-F, Tumorgraft lines were treated with vehicle control, HHT (0.7 mg/kg), rapamycin (0.5 mg/kg), (or the combination, where indicated) and tumor growth was measured on the indicated days. Day 0 represents the first day of treatment.
Tumorgrafts were generated and propagated as described previously, with tumor samples implanted subcutaneously into the flank of the mouse for drug trials. Briefly, 4- to 8-week-old NOD/SCID mice were anesthetized with isoflurane and implanted subcutaneously with 64 mm^3 tumor fragments (cohorts 2-20). Once tumors reached an average of at least ~250 mm^3, drug treatment was begun. […] Tumor size (volume) was measured twice weekly and was obtained by multiplying tumor length, width, and depth using calipers. To assess toxicity, mouse weight was monitored once weekly.

[3] = tested on: VHL-deficient 786-O cells; assay: Cell death by trypan blue exclusion assay; type: cell-based, human; settings: 36 hours
Description: (§2) Figure 2 Homoharringtonine (HHT) preferentially induces cell death in VHL-deficient 786-O cells A. 786-O cells with VHL mutation (green) or with VHL-reconstituted (red) were treated with different concentrations of HHT (0, 25, 50, or 100 nM) for 0, 6, 12, 24, 36, or 48 hours, and cell death was measured by trypan blue exclusion assay (n = 3 for each concentration and time point; *p < 0.05, **p < 0.001, ***p < 0.0001 between 786-O EV cells and 786-O with VHL reconstituted at the same concentration and time point). B. Western blot analysis of 786-O EV^GFP (EV) or VHL^mCh (VHL) cells treated with 100 nM HHT for 0, 3, 6, 12, or 24 hours. Blots were probed for Bcl-xL and Caspase 9, and α-Tubulin as loading control. Arrow indicates the cleaved Caspase 9 product.

[4] = tested on: VHL-reconstituted 786-O cells; assay: Cell death by trypan blue exclusion assay; type: cell-based, human; settings: 36 hours
Description: as §2

[5] = cited from earlier work

For COC(=O)C[C@](O)(CCCC(C)(C)O)C(=O)O[C@@H]1C(OC)=C[C@]23CCCN2CCc2cc4c(cc2[C@H]13)OCO4 [HHT, homoharringtonine], the Bcl-xL expression [1] was “upregulated”, the “caspase 9 cleavage” value ([2]; 50 nM and 100 nM, within 12 hours) was “observed” and the Bcl-xL expression ([2]; 24 hours) was “not upregulated”. For the same compound, the “tumor weight smaller than vehicle-treated” value (XP26 tumorgraft line) was 56%, the “tumor growth inhibition (tumor volume) vs vehicle” value (XP26 tumorgraft line; ~28 days) was 63.7% and the VHL-deficient cells killed ([3]; 50 nM) was 30-40%. For the same compound, the “dead VHL-deficient cells” value ([3]; 100 nM) was 50-60%, the VHL-reconstituted cells dead ([4]; 50 nM) was less than 10% and the “dead VHL-reconstituted cells” value ([4]; 100 nM) was “less than 25%”. For the same compound, the half-life in humans ([5]; dosed subcutaneously) was 7 h and the “plasma concentration reached in patients” value ([5]; treatment of CML) was ~ 50 nM.
